System: BRD2BD1, BRD2BD2, BRD3BD1, BRD3BD2, BRD4BD1, BRD4BD2 EGFP reporters
Test: EGFP/mCherry reporter assay across individual BET bromodomains
Format: cell-based, human
Details: BRD2/3/4 BD1 and BD2 reporter cells, 5 h

## Cc1sc2c(c1C)C(c1ccc(Cl)cc1)=N[C@@H](CC(=O)NCCCCCCCCNC(=O)COc1cccc3c1C(=O)N(C1CCC(=O)NC1=O)C3=O)c1nnc(C)n1-2 (stereo partly shown) [dBET6]
  activity profile across BET bromodomain reporters: activity on most bromodomains

From publication PMC6202246 (Nature chemical biology, 2018)
